Source: US20240082183A1, “METHODS FOR PREVENTING OR TREATING CONDITIONS RELATED TO T CELL MEDIATED INTESTINAL DISORDERS” (The Regents of the University of Michigan, priority 2021, published 2024)

Assays:
[1] = test system: primary colonic epithelial cells (PCECs); assay: In vitro allogeneic CTL assay, AnnexinV positive cells of Green CMFDA Dye positive PCECs; details: PCECs treated 0.2 mM for 2 hours
Method: PCECs were pre-treated with 5mM DMM, 0.5mM DI, 10nM atpenin A5 or vehicle for 3 hours.
Flow cytometry: Cells were re-suspended in 2% BSA in PBS and stained with the following antibodies and reagents; FITC-anti-CD326 (G8.8, #118208, 1:200), APC-anti-CD326 (G8.8, #118214, 1:200), DAPI, CellROX Deep Red (#C10491, 500 nM, Thermo Scientific), MitoSOX (#M36008, 5 μM, Thermo Scientific), JC-1 (#M34152, 2 μM, Thermo Scientific), 7-AAD (#420404, 1:100, BioLegend), Annexin V (#640947, 1:20, Biolegend), anti-CD16/CD32 antibody (BD Biosciences, 2.4G2), APC-anti-CD45.2 (#109814, 1:200, BioLegend), and CellTracker Green CMFDA Dye (#C7025, 1 μM, Invitrogen) according to manufacturer's protocol. Cells were run on Attune NxT flow cytometer (Thermo Scientific) and analyzed using FlowJo v10.2 (FlowJo LLC, Ashland, OR).

[2] = test system: primary colonic epithelial cells (PCECs); assay: Apoptosis of pre-treated PCECs induced by perforin and Granzyme B; assay type: cell-based, C57BL/6 mice; details: pre-treated 2 hours, then perforin and Granzyme B 4 hours
Method: Cell culture: C57BL/6 primary colonic epithelial cells (PCEC, C57-6047, Cell Biologics, Chicago, IL) were cultured in compete epithelial growth medium supplemented with insulin-transferrin-selenium, epidermal growth factor, glutamine, antibiotics, antimycotics and fecal bovine serum (#M6621, Cell Biologics). Cells were routinely tested for mycoplasma contamination using MycoAlert (#LT07-318, Lonza, Switzerland). Cells were treated with Mouse active perforin (#APB317Mu01, Cloud-Clone Corp., Katy, TX) and recombinant mouse Granzyme B (#140-03, PeproTech, Rocky Hill, NJ) for 4 to 6 hours in indicated concentrations following manufacturer's recommendations. Cells were incubated with GDF-15 (#8944-GD-025, 500 pg/mL, R&D Systems, Minneapolis, MN), Tiron (#172553, 10 mM, Sigma-Aldrich, St. Louis, MO), Trolox (#648471, 0.5 mM, Sigma-Aldrich), 4-Octyl itaconate (#SML2338, 0.1 mM, Sigma-Aldrich) and NAD (#N8285, 1 mM, Sigma-Aldrich).

[3] = test system: GI GVHD in B6 WT recipients; assay type: in vivo; details: for clinical GVHD severity of allogeneic mice vs vehicle / survival of allogeneic mice vs vehicle / survival of syngeneic mice: gavage every other day from day 0 post HCT; for histopathological GVHD severity in the colon and ileum / histopathological GVHD severity in the liver, skin, and lungs: allogeneic recipients, 7 days post HCT
Method: (§1) Hematopoietic cell transplantation (HCT): Splenic T cells from donors were enriched, and the BM was depleted of T cells by autoMACS (Miltenyi Biotec, Bergisch Gladbach, Germany) utilizing CD90.2 microbeads (#130-121-278, Miltenyi Biotec). WT B6, C3H.SW, Sdhaf1^−/−, Sdha^Δ/IEC , Irg1h−/−B6 and BALB/c animals were used as recipients and received 1,000 cGy (WT B6, Sdhaf1^−/−and Sdha^Δ/IEC) or 800 cGy (BALB/c) TBI on day −1, respectively, and 1×10^6 (C3H.SW→C57BL/B6 or C57BL/B6→BALB/c), 3×10^6 (BALB/c→C57BL/6, Sdhaf1^−/−, Sdha^Δ/IEC) CD90.2^+T cells along with 5×10^6 T-cell-depleted BM (TCD-BM) cells from either syngeneic or allogeneic donors on day 0. [B6Ly5.2→B6] and [B6 Ly5.2→Sdhaf1^−/−] animals received 900 cGy TBI on day −1 and were injected intravenously with 3×10^6 CD90.2^+T cells and 5×10^6 TCD-BM from either syngeneic B6 or BALB/c donors on day 0. For the chemotherapy conditioning model, B6 WT mice received busulfan (#B2635, 25 mg kg^−1 from day −7 to −4; Sigma-Aldrich) and cyclophosphamide (#C7397, 100 mg kg^−1 from day −3 to −2; Sigma-Aldrich) intraperitoneally, and 1×10^7 (BALB/c→C57BL/6) CD90.2^+T cells along with 1×10^7 TCD-BM cells from either syngeneic or allogeneic donors on day 0. For the no-irradiated model, unirradiated B6D2F1 mice were intravenously injected with 10×10^7 splenocytes from B6D2F1 or B6 donors. Animals received vehicle or dimethyl malonate (DMM, #136441, 0.5 g or 5g kg^−1, Sigma-Aldrich, St. Louis, MO, USA), dimethyl itaconate (DI, #09533, 0.25 g or 2.5g kg^−1, Sigma-Aldrich) or atpenin A5 (#11898, 0.9 μg or 9 μg kg^−1, Cayman Chemical, Ann Arbor, MI, USA) according to manufacturer's instructions by flexible 20-gauge, 1,5-in, intra-gastric gavage needle every other day from day 0. The mice were randomly assigned to syngeneic, allogeneic or treatment groups in each experiment. No mice were excluded from analysis. No statistical methods were used to predetermine sample size. The investigators were not blinded to allocation during experiments and outcome assessment.
Systemic and histopathological analysis of GVHD: Survival after HCT was monitored daily and assessed the degree of clinical GVHD weekly, as described previously^64. Histopathological analysis of the liver, gastrointestinal (GI) tract, and lung, which are the primary GVHD target organs, was performed as described utilizing a semi-quantitative scoring system implemented in a blinded manner by a single pathologist (C.L.)^65. After scoring, the codes were broken, and the data compiled.

SDHA = molecular target: T1, SDHA (Mus musculus, UniProt Q8K2B3+Q9CQA3+Q9CXV1+Q9CZB0); assay: SDH enzyme staining of colon and ileum 12 h after oral gavage; assay type: in vivo, B6 WT mice; details: naive B6 WT, 12 h after administration
T1 construct: from tissue; host or cells: colon and ileum of naive B6 WT mice
Method: as §1, with “The mice were randomly assigned to syngeneic, allogeneic or treatment groups in each experiment. No mice were excluded from analysis. No statistical methods were used to predetermine sample size. The investigators were not blinded to allocation during experiments and outcome assessment.” left out
Succinate dehydrogenase functional staining: Specimens were dissected from naïve, syngeneic and allogeneic WT B6 mice at 7 and 21 days post HCT. […] After mounting the slides, images were obtained using Olympus BX51M (Olympus, Japan) and the SDH activity was quantified using Image J (National Institutes of Health, Bethesda, […], USA).

[4] = test system: primary colonic epithelial cells (PCECs); assay: 51Cr release cytotoxic killing assay, pre-treated PCECs as targets of primed T cells; assay type: cell-based, B6 WT mice; details: for cell death of pre-treated PCECs vs diluent: co-cultured with allo-primed T cells; for apoptosis of pre-treated PCECs: cultured with syngeneic T cells
[5] = test system: isolated mitochondria of colon; assay: ATP detection assay in isolated mitochondria from IECs; assay type: biochemical, mice; details: 21 days post HCT, after malonate treatment
Method: Mitochondria Isolation: Isolated IECs from syngeneic and allogeneic recipients in mitochondria isolation buffer (MIB) were disrupted using a glass homogenizer with 2-3 strokes. MIB was composed of 70 mM sucrose (#S0389, Sigma-Aldrich), 210 mM mannitol (#M9546, Sigma-Aldrich), 5 mM HEPES, 1 mM EGTA (#E0396, Sigma-Aldrich), 0.5% BSA, pH 7.2 and protease inhibitor cocktail (#78429, Sigma-Aldrich). Homogenate was centrifuged at 800 g for 10 min at 4° C. Following centrifugation, fat/lipid was carefully aspirated, and the remaining supernatant was decanted through 2 layers of cheesecloth to a separate tube and centrifuged twice at 8000 g for 15 min at 4° C. After removal of the light mitochondrial layer, the pellet was resuspended in MIB and centrifuged at 8500 g for 10 min. The final pellet was resuspended in a minimal volume of mitochondrial assay solution (MAS) and kept on ice. […] Total protein (mg/ml) was determined via Pierce BCA Protein Assay (#23225, Thermo Scientific). […] The ATP level was measured using the Cell Titer Glo 2.0 luminescence assay (#G9243, Promega, Madison, WI). Luminescence was measured for 500 ms using a SpectraMax M3 Microplate reader (Molecular Devices, San Jose, CA).

B6 WT mice, colonic IECs = assay: DSS chemical induced colitis model; assay type: in vivo; details: twelve days after DSS treatment, vs control animals
Method: Colitis models: For the DSS colitis model, animals were provided with drinking water containing 2.5-3% DSS (#0216011010. MP Biomedicals, Santa Ana, CA) for 7 days. Mice were injected with 100 μg of anti-CTLA-4 mAb (#BE0164, clone 9D9, Bio X Cell, West Lebanon, NH) or isotype control (#BE0086, MCP-11, Bio X Cell) twice (3 and 1 day before DSS administration). For the T-cell transfer induced colitis model, isolated splenic T cells from WT B6 and Prf^−/−mice were stained with DAPI (#422801, 1 μM, Biolenged), APC-Cy7 anti-CD4 (#560246, GK1.5, 1:100, BD Biosciences, San Jose, CA), APC anti-CD25 (#101910, 3C7, 1:100, Biolegend), FITC anti-CD44 (#103006, IM7, 1:100, Biolegend) and PE anti-CD45RB (#103308, C363-16A, 1:100, Biolegend). CD4^+CD25^−CD44^−CD45RB^hi cells were sorted with the MoFlo Astrios cell sorter (Beckman Coulter, Indianapolis, IN) and intraperitoneally injected into Rag-1^−/−recipients.
Fluorescent immunohistochemistry staining: Sections were prepared as mentioned in the SDH functional staining method. […] SDH levels were quantified and measured in intensity from Cy3 positive epithelial cells using Image J. For primary mice colonic epithelial cells, cells were spun down and put on coverslips. […]
Succinate quantification: Isolated IECs were collected, processed and analysed using the Succinate Assay Kit (#ab204718, Abcam) according to the manufacturer's protocol.

T1 sequence (Q8K2B3 43-664): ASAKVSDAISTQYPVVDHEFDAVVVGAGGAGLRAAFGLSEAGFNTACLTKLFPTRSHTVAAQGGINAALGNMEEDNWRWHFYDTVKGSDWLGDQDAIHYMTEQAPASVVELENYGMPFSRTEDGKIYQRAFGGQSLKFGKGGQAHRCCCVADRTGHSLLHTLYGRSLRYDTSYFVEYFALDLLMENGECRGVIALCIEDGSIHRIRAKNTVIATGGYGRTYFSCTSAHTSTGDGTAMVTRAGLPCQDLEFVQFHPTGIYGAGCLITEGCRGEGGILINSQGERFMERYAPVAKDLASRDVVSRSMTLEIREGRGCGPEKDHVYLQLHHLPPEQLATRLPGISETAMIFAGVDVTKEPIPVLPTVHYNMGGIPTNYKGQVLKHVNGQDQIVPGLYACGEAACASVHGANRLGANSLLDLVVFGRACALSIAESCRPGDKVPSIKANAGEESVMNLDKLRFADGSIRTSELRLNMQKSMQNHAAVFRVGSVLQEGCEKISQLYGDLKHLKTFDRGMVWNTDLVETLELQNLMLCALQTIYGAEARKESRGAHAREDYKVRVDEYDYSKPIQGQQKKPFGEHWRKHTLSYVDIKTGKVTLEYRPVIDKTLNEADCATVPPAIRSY
T1 sequence (Q9CQA3 31-282): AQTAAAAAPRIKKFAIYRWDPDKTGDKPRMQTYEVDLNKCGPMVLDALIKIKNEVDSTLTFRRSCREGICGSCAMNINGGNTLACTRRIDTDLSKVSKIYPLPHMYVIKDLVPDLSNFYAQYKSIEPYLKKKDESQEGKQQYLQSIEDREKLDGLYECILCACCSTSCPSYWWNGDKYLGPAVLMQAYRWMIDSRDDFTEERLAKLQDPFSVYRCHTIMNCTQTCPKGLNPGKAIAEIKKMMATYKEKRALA
T1 sequence (Q9CZB0 30-169): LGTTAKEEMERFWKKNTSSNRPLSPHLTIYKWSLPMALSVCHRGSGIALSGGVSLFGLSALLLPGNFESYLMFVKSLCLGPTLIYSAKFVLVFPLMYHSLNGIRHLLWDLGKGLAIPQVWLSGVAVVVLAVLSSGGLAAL
T1 sequence (Q9CXV1 57-159): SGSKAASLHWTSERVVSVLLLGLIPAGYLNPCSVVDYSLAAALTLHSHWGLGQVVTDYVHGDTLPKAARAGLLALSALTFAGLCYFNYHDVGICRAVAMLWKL

C=C(CC(=O)OCCCCCCCC)C(=O)O [4-octyl itaconate, 4-Octyl itaconate]
susceptibility to T cell mediated cytotoxicity [1]: enhance susceptibility to T cell mediated cytotoxicity

O=S(=O)(O)c1cc(O)c(O)c(S(=O)(=O)O)c1 [Tiron]
apoptosis of PCECs induced by GranzymeB and perforin [2]: did not reduce apoptosis

Cc1c(C)c2c(c(C)c1O)CCC(C)(C(=O)O)O2 (stereo not shown) [Trolox]
apoptosis of PCECs induced by GranzymeB and perforin [2]: did not reduce apoptosis

COc1[nH]c(=O)c(C(=O)[C@@H](C)C[C@H](C)[C@@H](Cl)CCl)c(O)c1OC [atpenin A5]
clinical GVHD severity of allogeneic mice vs vehicle [3]: more severe GVHD symptoms
survival of allogeneic mice vs vehicle [3]: died significantly faster
survival of syngeneic mice [3]: survived
SDHA function (SDH enzymatic staining) (SDHA): inhibited SDHA function

C=C(CC(=O)OC)C(=O)OC [itaconate, dimethyl itaconate]
histopathological GVHD severity in the colon and ileum [3]: increased GVHD severity
histopathological GVHD severity in the liver, skin, and lungs [3]: not in the liver, skin, and lungs
clinical GVHD severity of allogeneic mice vs vehicle [3]: more severe GVHD symptoms
survival of allogeneic mice vs vehicle [3]: died significantly faster
cell death of pre-treated PCECs vs diluent [4]: significantly higher levels of cell death
apoptosis of pre-treated PCECs [4]: no increase in apoptosis
SDHA function (SDH enzymatic staining) (SDHA): inhibited SDHA function

COC(=O)CC(=O)OC [malonate, dimethyl malonate]
ATP production, difference between mitochondria from allogeneic and syngeneic/naive animals [5]: difference diminished
histopathological GVHD severity in the colon and ileum [3]: increased GVHD severity
histopathological GVHD severity in the liver, skin, and lungs [3]: not in the liver, skin, and lungs
clinical GVHD severity of allogeneic mice vs vehicle [3]: more severe GVHD symptoms
survival of allogeneic mice vs vehicle [3]: died significantly faster
survival of syngeneic mice [3]: survived
cell death of pre-treated PCECs vs diluent [4]: significantly higher levels of cell death
apoptosis of pre-treated PCECs [4]: no increase in apoptosis
SDHA function (SDH enzymatic staining) (SDHA): inhibited SDHA function

dextran sulfate sodium [DSS]
SDHA levels in colonic IECs (B6 WT mice, colonic IECs): similar
succinate levels in colonic IECs (B6 WT mice, colonic IECs): similar
